Measured values as given in US9549911B2, “Ginger metabolites and uses thereof” (North Carolina A&T State University, priority 2012, dated 2017).
Like-named read-outs stand apart in the source and are kept apart here.

How the values were obtained:
HCT-116 cells = assay: TUNEL apoptosis assay (Part 2); format: cell-based, human; conditions: HCT-116, 20 or 40 μM
Method: HCT-116 and H1299 cells were seeded in 6-well plates at 1×10^5 cells/well and incubated at 37° C. in 5% CO2 incubator. After 24 hours, fresh media supplemented with DMSO (control), [6]-shogaol, M2, M6, or M13 metabolites (20 μM or 40 μM) were added to the wells. After 6 or 24 hours incubation at 37° C. in 5% CO2 incubator, cells were washed and pre-treated for 15 min at room temperature with a solution of 20 μg/ml proteinase K. Cells were then washed twice with phosphate buffer saline pH 7.4 (PBS) and fixed for 10 min at room temperature using 10% neutral formaldehyde solution. After 2 washes in ddH2O, cells were resuspended in 100 μL ddH2O and applied on silanized microscope slides. Slides were incubated overnight at 37° C., and washed twice with PBS. TUNEL assay was then carried out according to the manufacturer's protocol. Cells were observed under 400× power using a Zeiss microscope A1 (Thornwood, N.Y.). 10 fields per slide were evaluated, and TUNEL+ cells (with brown coloration in the nucleus) were expressed as a percentage of the total number of cells contained in a field.

A549 cells [1] = assay: Intracellular glutathione (GSH, GSH/GSSG) measurement; format: cell-based, human; conditions: A549, 10 μM
Method: The total GSH content was measured using a HT Glutathione Assay kit (Trevigen, Galthersburg, Md.). Briefly A549 cells were plated in 60×15 mm culture plates and were allowed to attach overnight at 37° C. Cells were treated with 10 μM M2 and incubated for 0, 2, 4, 8, or 24 hours. Cells were harvested and proteins were precipitated with 5% (w/v) metaphosphoric acid. Samples were then processed following the manufacturer's instructions. The measurement of the absorbance of 5-thio-2-nitrobenzoic acid (TNB) at 405 nm was used to quantify glutathione levels in each sample, which was then compared to the standard curve and corrected for protein concentration.
For measurement of oxidized glutathione (Glutathione Disulfide or GSSG), samples and GSSG standards were treated with 2M 4-vinylpyridine (1 μL/50 μL sample) at room temperature for one hour. 4-Vinylpyridine (Sigma Aldrich, St. Louis, Mo.) blocks free thiols present in the reaction, consequentially blocking the formation of new GSSG by GSH. The 2M solution was freshly prepared by diluting 4-vinylpyridine in ethanol in a ratio of approximately 1:3.6. After incubation, samples were processed using the Trevigen kit's protocol and absorbance was measured at 405 nm as described herein.
The quantity of reduced cellular glutathione (or GSH) is obtained by subtracting the oxidized samples values from the total glutathione values or: GSH(reduced)=GSH(total)−GSSG(oxidized). Ratios of reduced to oxidized glutathione are shown to further represent cellular redox status after treatment with 6S or M2.

[2] = test system: human colon fibroblast cells CCD-18Co; assay: in vitro; format: cell-based
Method: Growth inhibition of human cancer and normal cells. Cell growth inhibition was determined by a MTT colorimetric assay. Human colon cancer cells HCT-116, human lung cancer cells H-1299, human colon fibroblast cells CCD-18Co, and human lung fibroblast cells IMR-90 were plated in 96-well microtiter plates with 3000 cells/well and allowed to attach for 24 h at 37° C. […] After the cells were cultured for 48 h, the medium was aspirated and cells were treated with 200 μL fresh medium containing 2.41 mmol/L MTT. […] The reading reflected the number of viable cells and was expressed as a percentage of viable cells in the control. Both HCT-116 and H-1299 cells were cultured in McCoy's 5A medium. CCD-18Co and IMR-90 cells were cultured in Eagle's modified essential medium (EMEM). All of the above media were supplemented with 10% fetal bovine serum, 1% penicillin/streptomycin, and 1% glutamine, and the cells were kept in a 37° C. incubator with 95% humidity and 5% CO2.

A549 cells [3] = assay: Western blotting of apoptosis and p53 pathway markers; format: cell-based, human; conditions: A549, 20 or 40 μM; for p53 levels (Western blot): 2 and 24 hours; for pro-apoptotic markers cytochrome C, cleaved caspase 3 and 9 (Western blot): 2 hours
Method: Cell extracts were prepared by incubating cells for 5 minutes on ice with RIPA (Radio-Immunoprecipitation Assay) buffer (Thermo Fisher Scientific, Rockford, Ill.) supplemented with a protease and phosphatase inhibitor mix. Cell lysate was then centrifuged at 13,000 rpm at 4° C. for 20 minutes, and supernatant was harvested for Western blot analysis. Briefly, 30-60 μg of protein extract were separated on a 10-16% polyacrylamide gel and transferred on PVDF (polyvinylidene difluoride) membrane (Biorad, Hercules, Calif.). Membrane was blocked using a 1% casein solution in TBS-Tween 20. Primary rabbit antibodies were diluted in blocking solution and incubated with the membrane overnight at 4° C. After washing the membrane with 3 changes of TBS-T, secondary Horse Radish Peroxydase (HRP)-conjugated anti-rabbit antibody was diluted 1:3000 in blocking solution and incubated with PVDF membrane for 1 hour at room temperature. […] Films were developed using a SRX-101A Konica Minolta developer (Tokyo, Japan). The experiment was repeated independently twice to confirm the results. Fold-induction of proteins calculated by normalizing the band of interest to the loading control (β-actin), and this adjusted intensity what compared to the control (DMSO) sample.

[4] = test system: IMR90 normal human lung cells; assay: MTT cell viability (Part 4); format: cell-based; conditions: read-out: IC50 (toxicity, MTT)
A549 cells [5] = assay: Cell Death Detection ELISA apoptosis (Part 4); format: cell-based, human; conditions: A549, 20 μM, 24 hours; for enrichment factor (small nucleosomes, ELISA): with pft
Method: The Cell Death Detection ELISA (Enzyme-linked immunoabsorbant assay) Plus kit from Roche (Mannheim, Germany) was used. […] After 24 hours, the microplate was centrifuged for 10 minutes at 1200 rpm, and the supernatant was removed. 200 μl of the lysis buffer was added in each well and incubated for 30 minutes at room temperature. The plate was then centrifuged for 10 minutes at 1200 rpm and 20 μl of the supernatant was transferred to streptavidin-coated micro-wells. ELISA assay was performed according to manufacturer's instruction. Absorbance in each well was measured at 405 nm in absorbance units (AU), and the enrichment factor (EF) in small nucleosomes was calculated with the formula EF=AU treated/AU DMSO.

A549 cancer cells = assay: MTT cell viability (Part 4); format: cell-based, human; conditions: A549, 24 hours, read-out: IC50 (toxicity, MTT)

Row | SMILES | induction of apoptosis (TUNEL) versus DMSO (HCT-116 cells; 6 hours) | induction of apoptosis (TUNEL) versus DMSO (HCT-116 cells; 24 hours) | intracellular GSH levels (A549 cells [1]; 2 hours) | GSH/GSSG ratio (A549 cells [1]; 4 hours) | intracellular GSH levels (A549 cells [1]; 8 hours) | GSH/GSSG ratio (A549 cells [1]; 24 hours) | intracellular GSH levels compared to baseline (A549 cells [1]; 24 hours) | IC50 [2] [µM] | p53 levels (Western blot) (A549 cells [3]) | pro-apoptotic markers cytochrome C, cleaved caspase 3 and 9 (Western blot) (A549 cells [3]) | IC50 [4] [µM] | enrichment factor (small nucleosomes, ELISA) (A549 cells [5]) | IC50 (A549 cancer cells) [µM] | GSH/GSSG ratio (A549 cells [1]; 2 hours) | IC50 ([4]; listed as 6S) [µM] | enrichment factor (cytoplasmic histone-associated DNA fragments, ELISA) (A549 cells [5]; without pft) | IC50 (A549 cancer cells; listed as 6S) [µM]
1 | CCCCCC(CC(=O)CCc1ccc(O)c(OC)c1)SC[C@H](N)C(=O)O (stereo partly drawn) [M2, 5-cysteinyl-[6]-shogaol] | higher levels of apoptosis | Apoptosis was observed | significantly depleted | significantly lower | significantly higher | significantly higher | significantly increased | 99.2 | increase in p53 levels | elevated after 2 hours | 98.3 | 2 | 30.4 | – | – | – | –
2 | CCCCC/C=C/C(=O)CCc1ccc(O)c(OC)c1 [[6]-shogaol, reference compound] | higher levels of apoptosis | – | significantly depleted | significantly lower | significantly lower | significantly higher | significantly increased | 43.9 | increase in p53 levels | elevated after 2 hours | – | about 1 | – | significantly lower | 36.6 | 2.2 | 25.2
